Data set [1] has as its system HCT-116. Put plainly: Antiproliferative activity against human HCT-116 cells assessed as inhibition of cell growth incubated for 1.5 hrs by CCK-8 assay. It is filed as functional, cell-based. Particulars: HCT-116, 1.5 h.
In data set [2] the test system is HeLa. Put plainly: Antiproliferative activity against human HeLa cells assessed as inhibition of cell growth incubated for 1.5 hrs by CCK-8 assay. It is filed as functional, cell-based. (In general: Tetrazolium dyes change colour on reduction, which living cells bring about.)
For data set [3], the system named is A2780. Put plainly: Antiproliferative activity against human A2780 cells assessed as inhibition of cell growth incubated for 1.5 hrs by CCK-8 assay. Format: functional, cell-based.
Data set [4] concerns A2780. Kind of data set: Growth inhibition of human A2780 cells incubated for 1.5 hrs by MTT assay. Particulars: A2780, 1.5 h. It is filed as functional, cell-based.
Data set [5] concerns CT26. Put plainly: Growth inhibition of CT26 cells incubated for 1.5 hrs by MTT assay. It is filed as functional, cell-based. Particulars: Mus musculus, CT26, 1.5 h.
Data set [6] relates to HeLa. Kind of data set: Growth inhibition of human HeLa cells incubated for 1.5 hrs by MTT assay. It is filed as functional, cell-based.
The subject of data set [7] is HeLa. Put plainly: Potency index, ratio of 5-fluorouracil IC50 to test compound IC50 for antiproliferative activity against human HeLa cells assessed as inhibition of cell growth. It is filed as functional.
Data set [8] has as its system SW480. Put plainly: Growth inhibition of human SW480 cells incubated for 1.5 hrs by MTT assay. It is filed as functional, cell-based.
Data set [9] has as its system A2780. Put plainly: Potency index, ratio of 5-fluorouracil IC50 to test compound IC50 for antiproliferative activity against human A2780 cells assessed as inhibition of cell growth. It is filed as functional.
Data set [10] has as its system HCT-116. Put plainly: Growth inhibition of human HCT-116 cells incubated for 1.5 hrs by MTT assay. Format: functional, cell-based. Particulars: HCT-116, 1.5 h.
Data set [11] has as its system HCT-116. Kind of data set: Potency index, ratio of 5-fluorouracil IC50 to test compound IC50 for antiproliferative activity against human HCT-116 cells assessed as inhibition of cell growth. It is filed as functional.
Data set [12] can be described thus: Cytotoxicity against human HUVEC cells assessed as inhibition of cell growth incubated 1.5 hrs by MTT assay. It is filed as toxicity, cell-based.
Data set [13] deals with HCT-116. Put plainly: Inhibition of colony formation in human HCT-116 cells at 0.1 uM incubated for 48 hrs by crystal violet staining based analysis. It is filed as functional.
A short description of data set [14]: Cytotoxicity against HEK293 cells assessed as inhibition of cell growth incubated 1.5 hrs by MTT assay. It is filed as toxicity, cell-based. Particulars: human.
The target of data set [15] is Tubulin. Kind of data set: Inhibition of tubulin (unknown origin) polymerization. It is filed as protein-complex assay, Homo sapiens.
The subject of data set [16] is MCF7. Put plainly: Antiproliferative activity against human MCF7 cells assessed as inhibition of cell growth incubated for 24 hrs by MTT assay. Format: functional, cell-based. Particulars: MCF7, 24 h.
The subject of data set [17] is MDA-MB-231. Kind of data set: Antiproliferative activity against human MDA-MB-231 cells assessed as inhibition of cell growth incubated for 24 hrs by MTT assay. It is filed as functional, cell-based. Particulars: MDA-MB-231, 24 h.
For data set [18], the target named is Estrogen receptor beta (Homo sapiens, UniProt Q92731). Put plainly: Binding affinity to human recombinant ERbeta incubated for 20 mins.
Chain of Estrogen receptor beta (Q92731 whole entry): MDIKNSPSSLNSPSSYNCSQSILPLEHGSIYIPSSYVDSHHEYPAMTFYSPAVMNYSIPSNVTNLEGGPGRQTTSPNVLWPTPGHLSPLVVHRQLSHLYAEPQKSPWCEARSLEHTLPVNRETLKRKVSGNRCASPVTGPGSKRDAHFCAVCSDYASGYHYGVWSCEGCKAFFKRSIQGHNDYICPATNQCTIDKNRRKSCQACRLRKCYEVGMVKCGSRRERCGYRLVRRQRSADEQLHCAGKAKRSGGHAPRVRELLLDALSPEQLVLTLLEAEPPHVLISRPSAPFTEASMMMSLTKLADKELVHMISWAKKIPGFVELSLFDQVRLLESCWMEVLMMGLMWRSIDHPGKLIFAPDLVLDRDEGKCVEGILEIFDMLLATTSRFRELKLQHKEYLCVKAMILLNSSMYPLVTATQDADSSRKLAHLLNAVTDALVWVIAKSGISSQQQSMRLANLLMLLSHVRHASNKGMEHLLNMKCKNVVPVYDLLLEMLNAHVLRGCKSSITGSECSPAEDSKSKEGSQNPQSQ
In data set [19] the target is Tubulin beta (Homo sapiens) (UniProt P68371+Q9H4B7+Q13509+P04350+Q3ZCM7+P07437+Q13885+Q9BVA1+Q9BUF5+A6NNZ2). Put plainly: Binding affinity to beta-tubulin colchicine binding site in human HCT-116 cells assessed as inhibition of EBI-beta-tubulin adduct band formation at 5 to 25 uM preincubated for 2 hrs followed by EBI addition measured after 1.5 hrs by EBI competition based Western blotting analysis. It is filed as cell-based. Particulars: dose 5-25 µM, time 3.5 hrs. In general terms: Immunoblotting shows a protein as a band on a membrane.

Active and inactive are the calls of the source. No cut-off for these calls is given here.

For the compound `COc1ccc(C2CC(=O)c3cc(OC)c(OC)c(OC)c32)cc1OC` (stereo not drawn), the IC50 (as a rule, the concentration needed to halve the response being measured) in data set [1] amounted to 13.3 µM; in [2] it was 8.21 µM; in [3] it was 23.9 µM.
Consider `CCOc1ccc(C2CC(=O)c3cc(OC)c(OC)c(OC)c32)cc1F` (stereo not drawn), for which the half-inhibitory concentration (IC50) in data set [1] amounted to 0.24 µM; in [4], 1.81 µM; in data set [5], 5.24 µM; in data set [6], 0.66 µM; in [8], 3.6 µM; in data set [10], 0.35 µM. Moreover, the IC50 came to 0.37 µM in [2] and 0.51 µM in [3]. Also, the “Ratio IC50” value is recorded as 42 in data set [7], 71 in [9] and 54 in data set [11].
With `COc1ccc(C2CC(=O)c3cc(OC)c(OC)c(OC)c32)cc1F` (stereo not drawn), the IC50 in data set [1] came out at 0.25 µM; in data set [2], 0.6 µM; in [3] it was 0.7 µM.
With `COc1cc2c(c(OC)c1OC)-c1ccc(OC)c(=O)cc1[C@@H](NC(C)=O)CC2` [COLCHICINE], the IC50 at 1.5 h in data set [12] turned out to be 9.62 µM; in data set [14], 0.17 µM. In addition, the inhibition entry in [13] was “Active”. Also, the IC50 in data set [1] is 0.035 µM; in [2], 0.026 µM; in data set [3], 0.043 µM.
`COc1ccc(C2CC(=O)c3cc(OC)c(OC)c(OC)c32)cc1I` (stereo not drawn): the IC50 in data set [1] was found to be 8.5 µM; in data set [2], 7.22 µM; in data set [3], 7.58 µM.
On to `COc1ccc(C2CC(=O)c3cc(OC)c(OC)c(OC)c32)cc1Cl` (stereo not drawn), for which the IC50 in data set [1] is 0.31 µM; in data set [2], 2.13 µM; in data set [3], 2.52 µM.
The like results for `CCOc1ccc(C2CC(=O)c3cc(OC)c(OC)c(OC)c32)cc1Br` (stereo not drawn) were, in that order, 8.99 µM, 4.99 µM and 4.11 µM.
Take `CCOc1ccc([C@@H]2CC(=O)c3cc(OC)c(OC)c(OC)c32)cc1F`: the IC50 in data set [4] is 3.69 µM; in data set [5], 10.8 µM; in data set [6], 1.05 µM; in [8] it was 4.52 µM; in data set [10], 0.58 µM.
`CCOc1ccc(C2CC(=O)c3cc(OC)c(OC)c(OC)c32)cc1` (stereo not drawn): the IC50 was determined as 0.3 µM in data set [1], 0.48 µM in data set [2] and 0.71 µM in [3].
Turning to `COc1ccc([C@H]2NC(=O)c3cc(OC)cc(OC)c32)cc1`, the IC50 in data set [15] was more than 100 µM.
On to `COc1cc2c(c(OC)c1OC)C(c1ccc(SC)cc1)CC2=O` (stereo not drawn), for which the IC50 in data set [1] is 1.82 µM; in data set [2], 2.27 µM; in data set [3], 2.91 µM.
Consider `COc1cc2c(c(OC)c1OC)C(c1ccc(OC(C)C)cc1)CC2=O` (stereo not drawn), for which the IC50 in data set [1] came out at 17.3 µM; in data set [2], 6.87 µM; in data set [3] it was 4.98 µM.
In the case of `COc1ccc(C2CC(=O)c3cc(OC)c(OC)c(OC)c32)cc1` (stereo not drawn), the IC50 in [1] stood at 1.88 µM; in data set [2], 0.43 µM; in data set [3] it was 0.69 µM.
With `COc1ccc([C@@H]2C(=O)c3ccc(OC)cc3[C@H]2c2ccc(OCCN3CCC(C)CC3)cc2)cc1`, the figures for the IC50 in data set [16], in [17] and in data set [18] were 7.16 µM, 3.94 µM and 0.51 µM, respectively.
For `COc1cc(C2CC(=O)c3cc(OC)c(OC)c(OC)c32)ccc1Cl` (stereo not drawn), the IC50 in [1], in data set [2] and in [3] was more than 100 µM in each case.
For `COc1ccc([C@H]2NC(=O)c3cc(OC)c(OC)c(OC)c32)cc1`, it took 52 µM to reach half-maximal inhibition in data set [15] (IC50).
For the compound `CC[C@]1(O)C[C@H]2CN(CCc3c([nH]c4ccccc34)[C@@](C(=O)OC)(c3cc4c(cc3OC)N(C=O)[C@H]3[C@@](O)(C(=O)OC)[C@H](OC(C)=O)[C@]5(CC)C=CCN6CC[C@]43[C@@H]65)C2)C1`, the outcome in data set [19] was Active.
For the compound `CCOc1ccc(C2CC(=O)c3cc(OC)c(OC)c(OC)c32)cc1Cl` (stereo not drawn), the results for the IC50 in data set [1], in data set [2] and in data set [3] were 1.86 µM, 2.08 µM and 2.33 µM, respectively.
The like results for `COc1ccc(C2CC(=O)c3cc(OC)c(OC)c(OC)c32)cc1[N+](=O)[O-]` (stereo not drawn) were, in that order, 1.93 µM, 2.22 µM and 2.73 µM.
On to `COc1ccc(C2CC(=O)c3cc(OC)c(OC)c(OC)c32)cc1Br` (stereo not drawn), for which the IC50 in data set [1] was 0.8 µM; in [2], 3.52 µM; in data set [3] it was 4.87 µM.
`COc1cc(OC)cc(C2CC(=O)c3cc(OC)c(OC)c(OC)c32)c1` (stereo not drawn): the IC50 in data set [1], in [2] and in [3] was more than 100 µM each time.
In the case of `COc1cc2c(c(OC)c1OC)C(c1ccc(OC(C)(C)C)cc1)CC2=O` (stereo not drawn), the IC50 worked out at 15.4 µM in [1], 9.15 µM in data set [2] and 12.6 µM in data set [3].
The like results for `COc1cc(C2CC(=O)c3cc(OC)c(OC)c(OC)c32)cc(OC)c1OC` (stereo not drawn) were, in that order, more than 100 µM, more than 100 µM and more than 100 µM.
Regarding `O=c1[nH]cc(F)c(=O)[nH]1` [FLUOROURACIL], the IC50 at 1.5 h in [12] came to 0.43 µM; in data set [14] it was 5.11 µM. Also, the IC50 in data set [4] was 32.1 µM; in data set [5], 59.2 µM; in data set [8], 37.5 µM; in data set [2] it was 15.7 µM; in data set [3] it was 36.3 µM.

These data come from ChEMBL document CHEMBL5329222, “Discovery of novel tubulin CBSI (R)-9k from the indanone scaffold for the treatment of colorectal cancer” (RSC Med Chem, 2023).
